Measurements: patent publication US7595398B2, “N-(5-membered aromatic ring)-amido anti-viral compounds” (SmithKline Beecham Corporation, priority 2005, dated 2009)

System: not given
Experiment: not given
Settings: patients treated at currently recommended doses; cited from earlier work

In the case of `NC(=O)c1ncn([C@@H]2O[C@H](CO)[C@@H](O)[C@H]2O)n1` [Ribavirin], the “patients with significant hemolysis” value is listed as 10-20%.

System: HCV replicon I389luc-ubi-neo/NS3-3′/ET in ET (Huh-lucubineo-ET) cells; screening for HCV RNA dependent RNA polymerase
Experiment: Replicon Assay (luciferase, ET cell line Huh-lucubineo-ET)
Assay type: cell-based
Settings: Hepatitis C virus; inhibition of replication relative to no compound control; test concentration of 10 μM according to the fitted equation; luciferase 48-72 hours
Method in brief: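 Huh-derived ET cells stably carrying an I389luc-ubi-neo/NS3-3′/ET HCV replicon with a luciferase-ubiquitin-neomycin phosphotransferase fusion and adaptive NS3-5B mutations were cultured in DMEM with 10% fetal calf serum and 250 μg/mL G418. Cells were seeded at 0.5-1.0×10^4 cells/well in 96 well plates and given compound after 24 hrs. Luciferase was read 48-72 hours later with Bright-Glo reagents, and replication inhibition was expressed relative to untreated controls.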

In order of falling inhibition at 10 µM:
1. COCCCNC(=O)c1ccc(-c2csc(NC(=O)[C@@H]3CCCN3C(=O)OCc3ccccc3)n2)cc1 [Compound 5370, 2-{4-[4-(3-Methoxy-propylcarbamoyl)-phenyl]-thiazol-2-ylcarbamoyl}-pyrrolidine-1-carboxylic acid benzyl ester]  100%
2. O=C(NC1CC1)c1ccc(-c2csc(NC(=O)[C@@H]3CCCN3C(=O)C3(c4ccccc4)CC3)n2)cc1 [Compound 5371, 1-(1-Phenyl-cyclopropanecarbonyl)-pyrrolidine-2-carboxylic acid [4-(4-cyclopropylcarbamoyl-phenyl)-thiazol-2-yl]-amide]  100%
3. O=C(Nc1ccccn1)c1ccc(-c2csc(NC(=O)[C@@H]3CCCN3C(=O)OCc3ccccc3)n2)cc1 [Compound 5372, 2-{4-[4-(Pyridin-2-ylcarbamoyl)-phenyl]-thiazol-2-ylcarbamoyl}-pyrrolidine-1-carboxylic acid benzyl ester]  99.9%
4. O=C(NC1CC1)c1ccc(-c2csc(NC(=O)C3CCCN3C(=O)OCc3ccncc3)n2)cc1 (centres unmarked) [Compound 5384, 2-[4-(4-Cyclopropylcarbamoyl-phenyl)-thiazol-2-ylcarbamoyl]-pyrrolidine-1-carboxylic acid pyridin-4-ylmethyl ester]  99.7%
5. O=C(Nc1ccc(-c2csc(NC(=O)[C@@H]3CCC(=O)N3C(=O)OCc3ccccc3)n2)cc1)C1CC1 [Compound 5366, 2-{4-[4-(Cyclopropanecarbonyl-amino)-phenyl]-thiazol-2-ylcarbamoyl}-5-oxo-pyrrolidine-1-carboxylic acid benzyl ester]  99.3%
6. O=C(CCCCC1SC[C@@H]2NC(=O)N[C@H]12)NCCCCCC(=O)Nc1ccc(-c2csc(NC(=O)C3CCCN3C(=O)OCc3ccccc3)n2)cc1 (some centres unmarked) [Compound 5374, 2-[4-(4-{6-[5-(2-Oxo-hexahydro-thieno[3,4-d]imidazol-6-yl)-pentanoylamino]-hexanoylamino}-phenyl)-thiazol-2-ylcarbamoyl]-pyrrolidine-1-carboxylic acid benzyl ester]  99.3%
7. O=C(NCc1ccc(-c2csc(NC(=O)[C@@H]3CCCN3C(=O)OCc3ccccc3)n2)cc1)C1CC1 [Compound 5369, 2-(4-{4-[(Cyclopropanecarbonyl-amino)-methyl]-phenyl}-thiazol-2-ylcarbamoyl)-pyrrolidine-1-carboxylic acid benzyl ester]  98.3%
8. O=C(Nc1nc(-c2ccc(S(=O)(=O)NC3CC3)cc2)cs1)C1CCCN1C(=O)OCc1ccccc1 (centres unmarked) [Compound 5378, 2-[4-(4-Cyclopropylsulfamoyl-phenyl)-thiazol-2-ylcarbamoyl]-pyrrolidine-1-carboxylic acid benzyl ester]  98.3%
9. O=C(Nc1nc(-c2ccc(NCC3CCCC3)cc2)cs1)[C@@H]1CCCN1C(=O)OCc1ccccc1 [Compound 5380, 2-{4-[4-(Cyclopentylmethyl-amino)-phenyl]-thiazol-2-ylcarbamoyl}-pyrrolidine-1-carboxylic acid benzyl ester]  98.3%
10. O=C(NC1CC1)c1ccc(-c2csc(NC(=O)[C@@H]3CCCN3C(=O)c3ccccc3)n2)cc1 [Compound 5367, 1-Benzoyl-pyrrolidine-2-carboxylic acid [4-(4-cyclopropylcarbamoyl-phenyl)-thiazol-2-yl]-amide]  97.3%
11. O=C(NC1CC1)c1ccc(-c2csc(NC(=O)[C@@H]3[C@@H](O)CCN3C(=O)OCc3ccccc3)n2)cc1 [Compound 5376, 2-[4-(4-Cyclopropylcarbamoyl-phenyl)-thiazol-2-ylcarbamoyl]-3-hydroxy-pyrrolidine-1-carboxylic acid benzyl ester]  96%
12. COC(=O)N1CCC[C@H]1C(=O)Nc1nc(-c2ccc(C(=O)NC3CC3)cc2)cs1 [Compound 5373, 2-[4-(4-Cyclopropylcarbamoyl-phenyl)-thiazol-2-ylcarbamoyl]-pyrrolidine-1-carboxylic acid methyl ester]  81.5%
13. O=C(NC1CCCC1)c1ccc(-c2cnc(NC(=O)[C@@H]3CCCN3C(=O)OCc3ccccc3)s2)cc1 [Compound 5368, 2-[5-(4-Cyclopentylcarbamoyl-phenyl)-thiazol-2-ylcarbamoyl]-pyrrolidine-1-carboxylic acid benzyl ester]  50.8%
14. O=C(Nc1nc(-c2cccc(N(CC3CC3)CC3CC3)c2)cs1)[C@@H]1CCCN1C(=O)OCc1ccccc1 [Compound 5383, 2-{4-[3-(Bis-cyclopropylmethyl-amino)-phenyl]-thiazol-2-ylcarbamoyl}-pyrrolidine-1-carboxylic acid benzyl ester]  47%
15. NCc1ccc(-c2csc(NC(=O)[C@@H]3CCCN3C(=O)OCc3ccccc3)n2)cc1 [Compound 5379, 2-[4-(4-Aminomethyl-phenyl)-thiazol-2-ylcarbamoyl]-pyrrolidine-1-carboxylic acid benzyl ester]  25%
16. O=C(Nc1nc(-c2ccc(C(=O)N3CCN(CCO)CC3)cc2)cs1)[C@@H]1CCCN1C(=O)OCc1ccccc1 [Compound 5377, 2-(4-{4-[4-(2-Hydroxy-ethyl)-piperazine-1-carbonyl]-phenyl}-thiazol-2-ylcarbamoyl)-pyrrolidine-1-carboxylic acid benzyl ester]  5.71%
